Laboratory results: patent publication US20080124274A1, “Compositions and methods for detecting and treating tumors containing acidic areas” (priority 2006, published 2008)
Values joined by “and” are separate entries in the source; they are usually repeats but may differ in a detail not shown here. Identical values can stand only once.

Columns and labels:
tumors = settings: tumor-bearing mice; reduction of about 0.3 pH units in the tumors; cited from earlier work
acidic areas of tumors = settings: without corresponding reduction of pH in normal tissues; cited from earlier work
[1] = urine rendered basic; cited from earlier work
[2] = Titration of the sodium salt with HCl in aqueous solution
Protocol: Typically new structures that may be suitable as advanced pH-switch components are first assessed for their pKa value in normal saline. This entails preparing the sodium salt form of the structure and dissolving it at a concentration of 20 milliMolar in 15 ml of 0.15 Molar NaCl (deareated to remove CO2). […] A plot of pH versus volume of added HCl affords the effective pKa value. It is also desirable to carry out this same titration in methanol/water (1:1 by vol) in order to get an estimate of the pKa value independent of insolubility effects.

O=C(O)CCCc1ccc(N(CCCl)CCCl)cc1 [Chlorambucil]
improvement in tumor growth delay (tumors): 1.7 fold

N=C(N)NCc1cccc([131I])c1 [meta-iodobenzylguanidine, reference compound]
reduction of the pH in acidic areas of tumors (acidic areas of tumors): further reduced

CC(=O)Nc1nnc(S(N)(=O)=O)s1 [Acetazolamide]
pH of the urine [1]: ≥ 7.4

CCC[N+]1([O-])CCC(C(=O)O)CC1 (stereo not drawn) [structure iii in FIG. 16b, N-oxide of N-propylisonipocotic acid]
minimum of the first derivative of the titration curve (pH) ([2]; sodium salt titrated in aqueous solution): ~4.0 and ~5.6

glucose and meta-iodobenzylguanidine
reduction of the pH in acidic areas of tumors (acidic areas of tumors): ≤ 0.7 pH unit

CN(C)C(=O)C=CC(=O)O [FIG. 14b]
mid-point of the transition between salt and acid (pKa value) ([2]; sodium salt titrated with HCl in aqueous solution): below 3.0
